Assays:
[1] = target: T1, TLR7 (Homo sapiens, UniProt Q9NYK1); test: huPBMC TLR7 Antagonist IFNα Assay; assay type: cell-based; settings: human PBMCs stimulated with ssRNA40 10 μg/mL (DOTAP), 14-16 hrs; IFNα2b AlphaLISA read-out
T1 construct: Fresh blood was collected from normal human donors; endogenous in cells; host or cells: human PBMCs from fresh donor blood
T1 sequence (Q9NYK1 27-1049): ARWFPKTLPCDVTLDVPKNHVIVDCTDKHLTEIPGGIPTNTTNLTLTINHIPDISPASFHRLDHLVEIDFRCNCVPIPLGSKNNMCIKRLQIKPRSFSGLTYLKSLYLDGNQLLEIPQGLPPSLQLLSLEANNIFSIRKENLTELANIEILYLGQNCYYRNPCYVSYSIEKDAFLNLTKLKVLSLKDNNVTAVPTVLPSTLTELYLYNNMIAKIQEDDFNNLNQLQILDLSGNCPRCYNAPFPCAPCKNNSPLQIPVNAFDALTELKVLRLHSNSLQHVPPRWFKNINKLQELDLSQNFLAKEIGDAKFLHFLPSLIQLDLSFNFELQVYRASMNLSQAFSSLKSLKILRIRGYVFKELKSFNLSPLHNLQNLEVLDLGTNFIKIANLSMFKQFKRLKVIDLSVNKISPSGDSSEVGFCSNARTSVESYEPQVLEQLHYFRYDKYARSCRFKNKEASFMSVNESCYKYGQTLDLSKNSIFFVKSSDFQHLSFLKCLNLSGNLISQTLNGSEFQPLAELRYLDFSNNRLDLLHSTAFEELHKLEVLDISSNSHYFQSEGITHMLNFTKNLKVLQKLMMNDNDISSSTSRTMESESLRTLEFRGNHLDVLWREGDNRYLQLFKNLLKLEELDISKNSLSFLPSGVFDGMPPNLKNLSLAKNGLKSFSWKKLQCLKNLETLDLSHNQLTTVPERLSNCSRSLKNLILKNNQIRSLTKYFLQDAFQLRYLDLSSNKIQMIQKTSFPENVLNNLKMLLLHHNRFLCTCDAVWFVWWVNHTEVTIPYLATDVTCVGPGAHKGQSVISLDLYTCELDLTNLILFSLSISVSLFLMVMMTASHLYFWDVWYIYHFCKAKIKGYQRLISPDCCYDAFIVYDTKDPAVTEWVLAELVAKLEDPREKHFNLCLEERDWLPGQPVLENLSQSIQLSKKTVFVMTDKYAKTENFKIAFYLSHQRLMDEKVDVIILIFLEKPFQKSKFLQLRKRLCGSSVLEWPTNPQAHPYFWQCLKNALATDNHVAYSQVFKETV
Description: (§1) Compounds were generally serially diluted (1/3) in DMSO and plated on sterile 384 well tissue culture plates and stored until ready for use. Each ten-point dilution was typically plated in triplicate in parallel rows.
(§2) Fresh blood was collected from normal human donors underwritten informed consent in heparinized syringes on the morning of the assay. The blood was diluted in RPMI-1640 medium and the white blood cells were separated from red blood cells by centrifugation (800 g 15′ 0 acceleration, 0 brake) on a Ficoll cushion. Peripheral blood mononuclear cells (PBMCs) were separated from platelets by a series of low-speed centrifugations (1000RPM 10′) in PBS+5% HI—FBS and 1 mM EDTA. Purified PBMCs were re-suspended in assay medium (RPMI-1640 w Glutamax (Invitrogen) supplemented with 5% HI—FBS, 10 mM HEPES, 50 uM β-mercaptoethanol, and 100 mG/L penicillin/streptomycin cocktail). Viable PBMCs were counted on a hemacytometer and kept on ice until ready for plating.
(§3) A 4× concentration (4 ug/ml or 40 ug/ml for TLR8 or TLR7 assays, respectively) of the TLR7/8 agonist ssRNA40 (IDT) was complexed with 10% DOTAP (Roche) in assay medium for 30 min prior to addition to the PBMC suspension (5 million cells/ml). After addition, the final concentration of ssRNA40 in the TLR7/8 stimulated PBMC suspension was 1 μg/ml for TLR8 assay, and 10 μg/mL for the TLR7 assay. The final DOTAP concentration was 2.5%. Diluted PBMCs (5 million cells/ml) were treated with 4×TLR9 agonist ODN2216 (Invivogen). Final concentration of ODN2216 in TLR9 stimulated PBMC suspension was 0.3 μM.
(§4) Agonist stimulated PBMCs were plated on the compound treated 384 well plates at 150,000 cells/well. Un-stimulated PBMCs were plated as controls on each plate. Plating volume was 40 μL per well. DMSO concentration in each well was 0.25%.
(§5) A separate plate, without compounds, with titrations of ssRNA40 and ODN2216 was included in every assay to measure agonist response of each donor's PBMC prep. Assay plates were placed in a tissue culture incubator (37° C., 5% CO2) for 14-16 hrs. After this incubation, the plates were centrifuged and stored at −20° C. until they were assayed.
(§6) IL-6 TR-FRET Assay for TLR8 activity: • 1) Cisbio Human IL-6 kit, 20,000 tests (62TNFPEC), and GNF High-Base TC 384 well plates (cat #789163G) were used; • 2) the Anti-TIL-6 Cryptate conjugate and the Anti-IL-6 XL665 conjugate were diluted 1:20 in Reconstitution Buffer; • 3) a 1:1 mixture of 3 μl/well Anti-IL-6 Cryptate conjugate and 3 μl/well Anti-IL-6 XL665 conjugate was prepared; • 4) 6 μl/well HTRF dilution mastermix was added to 6 μl of transferred supernatant samples in proxiplates; • 5) The plates were incubated for 3 hrs at rt in the dark; and • 6) the levels of IL-6 production was measured using an Envision plate reader (665 nm (emmission)/590 nm (excitation)) with HTRF settings and ratiometric read-out: (XL665 emission/Eu Cryptate emission)×10,000. IFNα2b AlphaLISA Assay for TLR7 or TLR9 activity After thawing the assay plates, 6 μL of supernatant samples were transferred to a low-volume AlphaPlate 384SW (Perkin-Elmer). The concentration of IFNα in supernatants was measured using the IFNα2b AlphaLISA Assay (Perkin-Elmer: AL297F). 3 μL of IFNα acceptor beads/biotinylated antibody solution was added first, using laboratory automation. After an hour incubation, […] of streptavidin […] bead solution was added. The plates containing this mixture were incubated in the dark for an hour and read on an appropriate plate reader at reading parameters set by the manufacturer. (Envision, EnSpire: Perkin-Elmer).

[2] = target: T2, TLR8 (Homo sapiens, UniProt Q9NR97); test: huPBMC TLR8 Antagonist IL-6 TR-FRET Assay; assay type: cell-based; design: Fresh blood was collected from normal human donors; endogenous in cells; host or cells: human PBMCs from fresh donor blood; settings: human PBMCs stimulated with ssRNA40 1 μg/ml (DOTAP), 14-16 hrs; IL-6 TR-FRET read-out
T2 sequence (Q9NR97 27-1041): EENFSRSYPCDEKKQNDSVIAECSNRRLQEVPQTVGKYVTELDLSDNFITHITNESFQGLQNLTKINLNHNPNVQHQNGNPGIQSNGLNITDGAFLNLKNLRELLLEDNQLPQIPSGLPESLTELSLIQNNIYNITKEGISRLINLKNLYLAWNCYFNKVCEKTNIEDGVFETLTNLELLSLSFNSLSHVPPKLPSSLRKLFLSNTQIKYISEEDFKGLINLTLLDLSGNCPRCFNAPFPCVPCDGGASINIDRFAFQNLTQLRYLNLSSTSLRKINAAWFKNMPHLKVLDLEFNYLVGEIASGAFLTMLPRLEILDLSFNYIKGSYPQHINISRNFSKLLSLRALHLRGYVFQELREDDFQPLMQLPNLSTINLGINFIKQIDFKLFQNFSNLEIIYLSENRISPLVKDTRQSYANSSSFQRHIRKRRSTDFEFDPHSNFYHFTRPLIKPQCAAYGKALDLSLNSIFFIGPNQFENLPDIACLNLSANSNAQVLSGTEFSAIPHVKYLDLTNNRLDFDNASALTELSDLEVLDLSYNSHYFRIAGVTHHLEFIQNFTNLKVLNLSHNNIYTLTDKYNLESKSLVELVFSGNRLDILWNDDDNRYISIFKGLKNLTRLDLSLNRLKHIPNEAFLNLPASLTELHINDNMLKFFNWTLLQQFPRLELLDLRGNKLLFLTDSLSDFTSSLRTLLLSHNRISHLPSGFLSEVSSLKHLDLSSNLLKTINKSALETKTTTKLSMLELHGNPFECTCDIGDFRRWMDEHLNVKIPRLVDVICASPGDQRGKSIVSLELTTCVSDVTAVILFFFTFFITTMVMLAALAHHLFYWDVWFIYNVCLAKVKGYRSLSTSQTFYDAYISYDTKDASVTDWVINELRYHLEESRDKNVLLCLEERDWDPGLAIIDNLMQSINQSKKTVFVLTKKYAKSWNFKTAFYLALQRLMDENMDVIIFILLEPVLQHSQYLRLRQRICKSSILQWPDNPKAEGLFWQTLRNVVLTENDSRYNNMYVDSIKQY
Description: as §1, §2, §3, §4, §5, §6

**Q.** With `Cc1cc(N2CCc3c(c(C)nn3CC34CCC(N)(CC3)CC4)C2)c2ccn(C)c2n1` [Compound No. 5, 4-((5-(1,6-dimethyl-1H-pyrrolo[2,3-b]pyridin-4-yl)-3-methyl-4,5,6,7-tetrahydro-1H-pyrazolo[4,3-c]pyridin-1-yl)methyl)bicyclo[2.2.2]octan-1-amine] as the molecule, how does the IC50 [1] read?
**A.** Its IC50 is 397 nM.

**Q.** What about the IC50 [2] of the same molecule?
**A.** The IC50 was 433 nM.

**Q.** How did the IC50 [1] turn out when `Cc1cc(N2CCc3c(c(C)nn3CC34CCC(NS(C)(=O)=O)(CC3)CC4)C2)c2cnn(C)c2n1` [Compound No. 48, N-(4-((5-(1,6-dimethyl-1H-pyrazolo[3,4-b]pyridin-4-yl)-3-methyl-4,5,6,7-tetrahydro-1H-pyrazolo[4,3-c]pyridin-1-yl)methyl)bicyclo[2.2.2]octan-1-yl)methanesulfonamide] was run?
**A.** The IC50 was 13 nM.

**Q.** How did the IC50 [1] turn out when `Cc1cc(N2CCc3c(c(C)nn3CC34CCC(NCC(F)F)(CC3)CC4)C2)c2cnn(C)c2n1` [Compound No. 61, N-(2,2-difluoroethyl)-4-((5-(1,6-dimethyl-1H-pyrazolo[3,4-b]pyridin-4-yl)-3-methyl-4,5,6,7-tetrahydro-1H-pyrazolo[4,3-c]pyridin-1-yl)methyl)bicyclo[2.2.2]octan-1-amine] was run?
**A.** Its IC50 is 12 nM.

**Q.** And the IC50 [2]?
**A.** Its IC50 is 129 nM.

**Q.** Which IC50 [1] does the source give for `Cc1nc(N2CCc3c(c(C)nn3CC34CCC(NC(=O)C5CNC5)(CC3)CC4)C2)c2c(n1)c(C)nn2C` [compound 32, N-(4-((3-methyl-5-(1,3,5-trimethyl-1H-pyrazolo[4,3-d]pyrimidin-7-yl)-4,5,6,7-tetrahydro-1H-pyrazolo[4,3-c]pyridin-1-yl)methyl)bicyclo[2.2.2]octan-1-yl)azetidine-3-carboxamide] here?
**A.** Its IC50 is 124 nM.

**Q.** What about the IC50 [2] of the same molecule?
**A.** The IC50 was 125 nM.

**Q.** Which results are given for `Cc1cc(N2Cc3cnn(CC45CCC(N)(CC4)CC5)c3C(C)(C)C2)c2cnn(C)c2n1` [compound 60, 4-((5-(1,6-dimethyl-1H-pyrazolo[3,4-b]pyridin-4-yl)-7,7-dimethyl-4,5,6,7-tetrahydro-1H-pyrazolo[4,3-c]pyridin-1-yl)methyl)bicyclo[2.2.2]octan-1-amine]?
**A.** IC50 [1]: 1030 nM; IC50 [2]: 277 nM

**Q.** For `Cc1nn(CC23CCC(N)(CC2)CC3)c2c1CN(c1ccnc(-c3ccccc3)c1)CC2` [compound 63, 4-((3-methyl-5-(2-phenylpyridin-4-yl)-4,5,6,7-tetrahydro-1H-pyrazolo[4,3-c]pyridin-1-yl)methyl)bicyclo[2.2.2]octan-1-amine], which IC50 [1] is on record?
**A.** The IC50 was 34 nM.

**Q.** What about the IC50 [2] of the same molecule?
**A.** The IC50 was 568 nM.

**Q.** For `Cc1cc(N2CCc3c(c(C)nn3CC34CCC(N5CCCCC5)(CC3)CC4)C2)c2cnn(C)c2n1` [compound 67, 5-(1,6-dimethyl-1H-pyrazolo[3,4-b]pyridin-4-yl)-3-methyl-1-((4-(piperidin-1-yl)bicyclo[2.2.2]octan-1-yl)methyl)-4,5,6,7-tetrahydro-1H-pyrazolo[4,3-c]pyridine], which IC50 [1] is on record?
**A.** The IC50 was 5 nM.

**Q.** And the IC50 [2]?
**A.** Its IC50 is 11 nM.

**Q.** `Cc1cc(N2CCc3c(c(C)nn3CC34CCC(N5C[C@H]6CC[C@@H](C5)O6)(CC3)CC4)C2)c2cnn(C)c2n1` [compound 120, (1R,5S)-3-(4-((5-(1,6-dimethyl-1H-pyrazolo[3,4-b]pyridin-4-yl)-3-methyl-4,5,6,7-tetrahydro-1H-pyrazolo[4,3-c]pyridin-1-yl)methyl)bicyclo[2.2.2]octan-1-yl)-8-oxa-3-azabicyclo[3.2.1]octane] was tested. Which IC50 [1] did it give?
**A.** The IC50 was 4 nM.

**Q.** And the IC50 [2]?
**A.** Its IC50 is 20 nM.

**Q.** For `Cc1cc(N2CCc3c(c(C)nn3CC34CCC(NC(=O)CN(C)S(C)(=O)=O)(CC3)CC4)C2)c2cnn(C)c2n1` [compound 138, N-(4-((5-(1,6-dimethyl-1H-pyrazolo[3,4-b]pyridin-4-yl)-3-methyl-4,5,6,7-tetrahydro-1H-pyrazolo[4,3-c]pyridin-1-yl)methyl)bicyclo[2.2.2]octan-1-yl)-2-(N-methylmethylsulfonamido)acetamide], which IC50 [1] is on record?
**A.** The IC50 was 6 nM.

**Q.** What about the IC50 [2] of the same molecule?
**A.** The IC50 was 2790 nM.

**Q.** How did the IC50 [1] turn out when `CC(=O)N(C)CC(=O)NC12CCC(Cn3nc(C)c4c3CCN(c3cc(C)nc5c3cnn5C)C4)(CC1)CC2` [compound 139, N-(4-((5-(1,6-dimethyl-1H-pyrazolo[3,4-b]pyridin-4-yl)-3-methyl-4,5,6,7-tetrahydro-1H-pyrazolo[4,3-c]pyridin-1-yl)methyl)bicyclo[2.2.2]octan-1-yl)-2-(N-methylacetamido)acetamide] was run?
**A.** The IC50 was 67 nM.

**Q.** And the IC50 [2]?
**A.** Its IC50 is 3540 nM.

From patent publication US20240376099A1, “COMPOUNDS AND COMPOSITIONS AS INHIBITORS OF ENDOSOMAL TOLL-LIKE RECEPTORS” (Novartis AG, priority 2016, published 2024)
